According to patent US10550111B2, “Pyrimidine urea compound containing isoxazolines and use thereof” (SHENYANG SINOCHEM AGROCHEMICALS R&D CO., LTD, priority 2014, dated 2020):

Tests used:
[1] = tested on: broad-leaf weeds and grass weeds; test: General screening of herbicidal activity in greenhouse; assay type: in vivo; conditions: 1000 g a.i./hm^2;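 further: 0 means no visible effect and 100 means all weeds dead or not emerged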
Method in brief: (§1)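 Monocot and dicot weeds grown in greenhouse pots; emulsifiable concentrate track-sprayed at 500 L/hm² pre-emergence (24 h after seeding) or post-emergence (grasses 2–3-leaf, broad-leaves 2–4-leaf). Growth inhibition scored visually, 0 = no action, 100 = all dead or not emerged.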

[2] = tested on: Amaranthus retroflexus L.; test: Weed spectrum study in greenhouse; assay type: in vivo
Source text: Seeds of monocotyledonous and dicotyledonous weeds were sown in nutrition soil in paper pot (7 cm diameter), covered with soil in 1 cm and grown in the greenhouse under good growth conditions (temperature, atmospheric humidity, water supply). The compounds of the present invention as emulsifiable concentrate, were applied in pre-emergence and post-emergence treatment by track sprayer (Engineer Research Ltd., pressure 1.95 kg/cm^2, volume 500 L/hm^2, track speed 1.48 km/h). Pre-emergence treatment was conducted after seeding 24 hours and post-emergence treatment was done when the respective weeds reached predetermined leaf stage (grass weed 2- to 3-leaf stage, […]), the state of growth of the respective weeds were visually observed to determine the growth inhibition rate (%) in accordance with the following evaluation standard.
(§2) Growth inhibition rate (%): 0=no discernible action: 100=all weeds dead or not emerged.
(§3) The method is as example 18.

[3] = tested on: Digitaria sanguinalis (L.); test: Weed spectrum study in greenhouse; assay type: in vivo
Source text: Seeds of monocotyledonous and dicotyledonous weeds were sown in nutrition soil in paper pot (7 cm diameter), covered with soil in 1 cm and grown in the greenhouse under good growth conditions (temperature, atmospheric humidity, water supply). The compounds of the present invention as emulsifiable concentrate, were applied in pre-emergence and post-emergence treatment by track sprayer (Engineer Research Ltd., pressure 1.95 kg/cm^2, volume 500 L/hm^2, track speed 1.48 km/h). Pre-emergence treatment was conducted after seeding 24 hours and post-emergence treatment was done when the respective weeds reached predetermined leaf stage ([…], broad-leaf weed 2- to 4-leaf stage), the state of growth of the respective weeds were visually observed to determine the growth inhibition rate (%) in accordance with the following evaluation standard.
as §2, §3

[4] = tested on: Setaria glauca (L.) Beauv.; test: Bioassay of herbicidal activity in greenhouse (further screening); assay type: in vivo
Method in brief: as §1

[5] = tested on: Echinochloa crus-galli (L.) Beauv.; test: as above; assay type: in vivo
Method in brief: as §1

[6] = tested on: Abutilon theophrasti Medic.; test: as above; assay type: in vivo
Method in brief: as §1

Zinnia elegans Jacq. = test: as above; assay type: in vivo
Method in brief: as §1

grass weed = test: Field trial, weed control in orchard (non-cultivated land); assay type: in vivo, Digitaria sanguinalis (L.) Scop.
Experimental: (§4) The field trial was conducted in an orchard located at Liaoyang city, Liaoning province, China; the orchard planted mainly apple trees and almond trees, plum trees and pear trees as well, weeding control were conducted three times one year by application of paraquat. Weeds were distributed uniformity and moderate density, mainly of broad-leaf weeds including Conyza canadensis (L.)Cronq., Sonchus brachyotus DC., Polygonum aviculare L., Humulus scandens (Lour.) Merr., Ixeridium sonchifolium (Maxim.) Shih, Galium aparine L. var. tenerum Gren. et (Godr.) Rebb., Rumex japonicus Houtt. and Metaplexis japonica (Thunb.) Makino, partly of grass weed was Digitaria sanguinalis (L.) Scop., average height range was between 30 and 40 cm. sprayer was knapsack hand-operated sprayer(AGROLEX HD400) produced by AGROLEx PTE Ltd., spray volume was 675 L/hm^2, processing date was Jul. 3, 2015. On the 15th day after application, weeds were visually observed to determine the growth inhibition rate (%).

[7] = tested on: Arthraxon hispidus (Thunb.) Makino; test: Weed spectrum study in greenhouse; assay type: in vivo
Source text: (§5) Seeds of monocotyledonous and dicotyledonous weeds were sown in nutrition soil in paper pot (7 cm diameter), covered with soil in 1 cm and grown in the greenhouse under good growth conditions (temperature, atmospheric humidity, water supply). The compounds of the present invention as emulsifiable concentrate, were applied in pre-emergence and post-emergence treatment by track sprayer (Engineer Research Ltd., pressure 1.95 kg/cm^2, volume 500 L/hm^2, track speed 1.48 km/h). Pre-emergence treatment was conducted after seeding 24 hours and post-emergence treatment was done when the respective weeds reached predetermined leaf stage (grass weed 2- to 3-leaf stage, broad-leaf weed 2- to 4-leaf stage), the state of growth of the respective weeds were visually observed to determine the growth inhibition rate (%) in accordance with the following evaluation standard.
as §2, §3

Cyperus difformis L. = test: Weed spectrum study in greenhouse; assay type: in vivo
Source text: as §5, §2, §3

Cyperus glomeratus L. = test: Weed spectrum study in greenhouse; assay type: in vivo
Source text: Seeds of monocotyledonous and dicotyledonous weeds were sown in nutrition soil in paper pot (7 cm diameter), covered with soil in 1 cm and grown in the greenhouse under good growth conditions (temperature, atmospheric humidity, water supply). The compounds of the present invention as emulsifiable concentrate, were applied in pre-emergence and post-emergence treatment by track sprayer (Engineer Research Ltd., pressure 1.95 kg/cm^2, volume 500 L/hm^2, track speed 1.48 km/h). Pre-emergence treatment was conducted after seeding 24 hours and post-emergence treatment was done when the respective weeds reached predetermined leaf stage ([…]), the state of growth of the respective weeds were visually observed to determine the growth inhibition rate (%) in accordance with the following evaluation standard.
as §2, §3

weeds = test: Field trial, weed control in orchard (non-cultivated land); assay type: in vivo
Experimental: as §4

broad-leaf weeds = test: as above; assay type: in vivo
Experimental: as §4

[8] = pre-emergence, dose 600 g a.i./hm^2
[9] = dose 60 g a.i./hm^2, 15th day after application
[10] = dose 120 g a.i./hm^2, 15th day after application
[11] = dose 180 g a.i./hm^2, 15th day after application
[12] = dose 240 g a.i./hm^2, 15th day after application
[13] = dose 300 g a.i./hm^2, 15th day after application

CCOC(=O)C1(C)CC(c2cc(-n3c(=O)cc(C(F)(F)F)n(C)c3=O)c(F)cc2Cl)=NO1 (stereo not drawn) [Compound 6] was tested, and the “pre-emergence and post-emergence herbicidal activity against broad-leaf weeds and grass weeds” value [1] was “good”, the “Growth inhibition rate, Amaranthus retroflexus L. (height 10-15 cm)” value (from here on “Growth inhibition rate … (height 10-15 cm)”) ([2]; dose 7.5 g a.i./hm^2) was 90% and the “Growth inhibition rate … (height 10-15 cm)” value ([2]; dose 15 g a.i./hm^2) was 98%. For the same compound, the “Growth inhibition rate … (height 10-15 cm)” value ([2]; dose 30 g a.i./hm^2) was 100%, the “Growth inhibition rate … (height 10-15 cm)” value ([2]; dose 60 g a.i./hm^2) was 100% and the “Growth inhibition rate … (height 10-15 cm)” value ([2]; dose 120 g a.i./hm^2) was 100%. The “Growth inhibition rate, Digitaria sanguinalis (L.) (4,5-leaf stage)” value (“Growth inhibition rate … (L.) (4,5-leaf stage)” for short) ([3]; dose 7.5 g a.i./hm^2) was 80%, the “Growth inhibition rate … (L.) (4,5-leaf stage)” value ([3]; dose 15 g a.i./hm^2) was 90% and the “Growth inhibition rate … (L.) (4,5-leaf stage)” value ([3]; dose 30 g a.i./hm^2) was 100%. The “Growth inhibition rate … (L.) (4,5-leaf stage)” value ([3]; dose 60 g a.i./hm^2) was 100%, the “Growth inhibition rate … (L.) (4,5-leaf stage)” value ([3]; dose 120 g a.i./hm^2) was 100% and the “Growth inhibition rate, Post-emergence treatment, Setaria glauca (L.) Beauv.” value ([4]; dose 7.5 g a.i./hm^2) was 85%. The “Growth inhibition rate, Post-emergence treatment, Setaria glauca (L.) Beauv.” value ([4]; dose 15 g a.i./hm^2) was 98%, the “Growth inhibition rate, Post-emergence treatment, Setaria glauca (L.) Beauv.” value ([4]; dose 30.0 g a.i./hm^2) was 95% and the “Growth inhibition rate, Post-emergence treatment, Setaria glauca (L.) Beauv.” value ([4]; dose 60.0 g a.i./hm^2) was 100%. For the same compound, the “Growth inhibition rate, Post-emergence treatment, Setaria glauca (L.) Beauv.” value ([4]; dose 120.0 g a.i./hm^2) was 100%, the “Growth inhibition rate, Post-emergence treatment, Setaria glauca (L.) Beauv.” value ([4]; dose 600 g a.i./hm^2) was 100% and the “Growth inhibition rate, Pre-emergence treatment, Setaria glauca (L.) Beauv.” value [4, 8] was 55%. The “Growth inhibition rate, Post-emergence treatment, Echinochloa crus-galli (L.) Beauv.” value ([5]; dose 7.5 g a.i./hm^2) was 70%, the “Growth inhibition rate, Post-emergence treatment, Echinochloa crus-galli (L.) Beauv.” value ([5]; dose 15 g a.i./hm^2) was 98% and the “Growth inhibition rate, Post-emergence treatment, Echinochloa crus-galli (L.) Beauv.” value ([5]; dose 30.0 g a.i./hm^2) was 98%. The “Growth inhibition rate, Post-emergence treatment, Echinochloa crus-galli (L.) Beauv.” value ([5]; dose 60.0 g a.i./hm^2) was 100%, the “Growth inhibition rate, Post-emergence treatment, Echinochloa crus-galli (L.) Beauv.” value ([5]; dose 120.0 g a.i./hm^2) was 100% and the “Growth inhibition rate, Post-emergence treatment, Echinochloa crus-galli (L.) Beauv.” value ([5]; dose 600 g a.i./hm^2) was 100%. The “Growth inhibition rate, Pre-emergence treatment, Echinochloa crus-galli (L.) Beauv.” value [5, 8] was 70%, the “Growth inhibition rate, Post-emergence treatment, Abutilon theophrasti Medic.” value ([6]; dose 7.5 g a.i./hm^2) was 100% and the “Growth inhibition rate, Post-emergence treatment, Abutilon theophrasti Medic.” value ([6]; dose 15 g a.i./hm^2) was 100%. The “Growth inhibition rate, Post-emergence treatment, Abutilon theophrasti Medic.” value ([6]; dose 30.0 g a.i./hm^2) was 100%, the “Growth inhibition rate, Post-emergence treatment, Abutilon theophrasti Medic.” value ([6]; dose 60.0 g a.i./hm^2) was 100% and the “Growth inhibition rate, Post-emergence treatment, Abutilon theophrasti Medic.” value ([6]; dose 120.0 g a.i./hm^2) was 100%. The “Growth inhibition rate, Post-emergence treatment, Abutilon theophrasti Medic.” value ([6]; dose 600 g a.i./hm^2) was 100%, the “Growth inhibition rate, Pre-emergence treatment, Abutilon theophrasti Medic.” value [6, 8] was 100% and the “Growth inhibition rate, Post-emergence treatment, Zinnia elegans Jacq.” value (Zinnia elegans Jacq.; dose 7.5 g a.i./hm^2) was 95%. The “Growth inhibition rate, Post-emergence treatment, Zinnia elegans Jacq.” value (Zinnia elegans Jacq.; dose 15 g a.i./hm^2) was 98%, the “Growth inhibition rate, Post-emergence treatment, Zinnia elegans Jacq.” value (Zinnia elegans Jacq.; dose 30.0 g a.i./hm^2) was 100% and the “Growth inhibition rate, Post-emergence treatment, Zinnia elegans Jacq.” value (Zinnia elegans Jacq.; dose 60.0 g a.i./hm^2) was 100%. For the same compound, the “Growth inhibition rate, Post-emergence treatment, Zinnia elegans Jacq.” value (Zinnia elegans Jacq.; dose 120.0 g a.i./hm^2) was 100%, the “Growth inhibition rate, Post-emergence treatment, Zinnia elegans Jacq.” value (Zinnia elegans Jacq.; dose 600 g a.i./hm^2) was 100% and the “Growth inhibition rate, Pre-emergence treatment, Zinnia elegans Jacq.” value (Zinnia elegans Jacq.; [8]) was 55%. For the same compound, the “Growth inhibition rate (%) of grass weed” value (grass weed; [9]) was 61.7%, the “Growth inhibition rate (%) of grass weed” value (grass weed; [10]) was 71.7% and the “Growth inhibition rate (%) of grass weed” value (grass weed; [11]) was 83.3%. For the same compound, the “Growth inhibition rate (%) of grass weed” value (grass weed; [12]) was 88.3%, the “Growth inhibition rate (%) of grass weed” value (grass weed; [13]) was 94.3% and the “Growth inhibition rate, Arthraxon hispidus (Thunb.) Makino (3-leaf stage)” value (“Growth inhibition rate … (3-leaf stage)” for short) ([7]; dose 7.5 g a.i./hm^2) was 60%. For the same compound, the “Growth inhibition rate … (3-leaf stage)” value ([7]; dose 15 g a.i./hm^2) was 85%, the “Growth inhibition rate … (3-leaf stage)” value ([7]; dose 30 g a.i./hm^2) was 90% and the “Growth inhibition rate … (3-leaf stage)” value ([7]; dose 60 g a.i./hm^2) was 100%. The “Growth inhibition rate … (3-leaf stage)” value ([7]; dose 120 g a.i./hm^2) was 100%, the “Growth inhibition rate, Cyperus difformis L. (4,5-leaf stage)” value (Cyperus difformis L.; dose 7.5 g a.i./hm^2) was 30% and the “Growth inhibition rate, Cyperus difformis L. (4,5-leaf stage)” value (Cyperus difformis L.; dose 15 g a.i./hm^2) was 60%. For the same compound, the “Growth inhibition rate, Cyperus difformis L. (4,5-leaf stage)” value (Cyperus difformis L.; dose 30 g a.i./hm^2) was 90%, the “Growth inhibition rate, Cyperus difformis L. (4,5-leaf stage)” value (Cyperus difformis L.; dose 60 g a.i./hm^2) was 95% and the “Growth inhibition rate, Cyperus difformis L. (4,5-leaf stage)” value (Cyperus difformis L.; dose 120 g a.i./hm^2) was 100%. For the same compound, the “Growth inhibition rate, Cyperus glomeratus L. (5-leaf stage)” value (from here on “Growth inhibition rate … (5-leaf stage)”) (Cyperus glomeratus L.; dose 7.5 g a.i./hm^2) was 80%, the “Growth inhibition rate … (5-leaf stage)” value (Cyperus glomeratus L.; dose 15 g a.i./hm^2) was 80% and the “Growth inhibition rate … (5-leaf stage)” value (Cyperus glomeratus L.; dose 30 g a.i./hm^2) was 90%. For the same compound, the “Growth inhibition rate … (5-leaf stage)” value (Cyperus glomeratus L.; dose 60 g a.i./hm^2) was 100%, the “Growth inhibition rate … (5-leaf stage)” value (Cyperus glomeratus L.; dose 120 g a.i./hm^2) was 100% and the “Total growth inhibition rate (%) of weeds” value (weeds; [9]) was 81.7%. For the same compound, the “Total growth inhibition rate (%) of weeds” value (weeds; [10]) was 91.7%, the “Total growth inhibition rate (%) of weeds” value (weeds; [11]) was 91.7% and the “Total growth inhibition rate (%) of weeds” value (weeds; [12]) was 93.3%. The “Total growth inhibition rate (%) of weeds” value (weeds; [13]) was 98.7%, the “Growth inhibition rate (%) of broad-leaf weeds” value (broad-leaf weeds; [9]) was 85.0% and the “Growth inhibition rate (%) of broad-leaf weeds” value (broad-leaf weeds; [10]) was 93.3%. The “Growth inhibition rate (%) of broad-leaf weeds” value (broad-leaf weeds; [11]) was 94.3%, the “Growth inhibition rate (%) of broad-leaf weeds” value (broad-leaf weeds; [12]) was 97.0% and the “Growth inhibition rate (%) of broad-leaf weeds” value (broad-leaf weeds; [13]) was 92.7%.
